Laboratory results published in US7556795B2, “Radiopharmaceutical formulations” (Bracco Imaging S.p.A., priority 2002, dated 2009).

Assay: Radiochemical purity (RCP) of 99mTc labeled peptide by HPLC
Type: physicochemical
Details: 99mTc complex, 4 μg ligand, 300 μL EtOH, ~40 mCi 99mTcO4-, average of multiple experiments; for Percent RCP at 6 hours: prepared at room temperature; for Percent RCP at 15 min: room temperature 15 min
Experimental: To prepare the ^99mTc complex of Compound 1, 300 μL of ethanol, 50 μL of ligand solution (4 μg Compound 1), 200 μL of gentisic acid solution (20 mg), 50 μL of hydroxypropyl-γ-cyclodextrin solution (2.5 mg) 100 μL of stannous gluconate solution (40 μg of SnCl2), and ^99mTcO4^− (˜40 mCi) was added. Water was added to bring the final volume to 1.0 mL, and the reaction was heated at 100° C. for 15-20 min.
The ^99mTc labeled peptide purity was determined by HPLC using a Vydac C18 protein and peptide analytical column, 300 A pore size, 4.6×250 mm column length. The following gradient (flow rate 1 mL/min) was used: Isocratic elution 78% H2O (0.1% TFA)/22% CH3CN (0.1% TFA) for 20 min, gradient from 78% to 40% CH3CN (0.1% TFA) over 5 min, hold at 40% CH3CN (0.1% TFA) for 10 min, ramp from 40% to 78% CH3CN (0.1% TFA) over 5 min.
To prepare the ^99mTc complex, 50 μL of ligand solution (4 μg Compound 1-4), 300 μL of EtOH, 250 μL of gentisic acid solution (20 mg), 50 μL of 1SnCl2: 34 Gluconic acid (40 μg of SnCl2), and ^99mTcO4^− (˜40 mCi, Syncor) was added. Water was added to bring the final volume to 1.0 mL, and the reaction was allowed to stand at room temperature for 15 min. The solutions were then analyzed for RCP as described in Example 2.
To 50 μL of the Compound 1 solution (4 μg) was added ^99mTcO4^− (190 μL, 41.5 mCi), 0.458 mL of H2O, 50 μL of the stannous gluconate solution (40 μg of SnCl2) and 262 μL of gentisic acid solution (20 mg). The reaction was heated at 100° for 5 min. prior to HPLC analysis, which was performed using the following system: Vydac C-18 Protein and Peptide column (4.6×250 mm) eluted with 78% H2O (0.1% TFA)/22% CH3CN (0.1% TFA) for 20′, ramped from 78% to 40% H2O (0.1% TFA) in 5′, held at 40% H2O (0.1% TFA) for 10′, then ramped from 40% to 78% H2O (0.1% TFA) in 5′. Flow rate: 1 mL/min. The resulting RCP was 87.4% initially and 87.1% at 6 hours. The recovery from the vial was 67%.

| SMILES | Percent RCP at 6 hours | Percent RCP at 15 min |
| --- | --- | --- |
| CSCCC(NC(=O)[C@H](CC(C)C)NC(=O)[C@H](Cc1cnc[nH]1)NC(=O)CNC(=O)[C@@H](NC(=O)[C@H](C)NC(=O)[C@H](Cc1c[nH]c2ccccc12)NC(=O)[C@H](CCC(N)=O)NC(=O)CCCCNC(=O)CNC(=O)[C@H](CS)NC(=O)[C@H](CO)NC(=O)CN(C)C)C(C)C)C(N)=O (stereo partly shown) [Compound 1] | 88.1% | – |
| CSCC[C@H](NC(=O)[C@H](CC(C)C)NC(=O)[C@H](Cc1cnc[nH]1)NC(=O)CNC(=O)[C@@H](NC(=O)[C@H](C)NC(=O)[C@H](Cc1c[nH]c2ccccc12)NC(=O)[C@H](CCC(N)=O)NC(=O)CCCCNC(=O)CNC(=O)[C@H](CS)NC(=O)CNC(=O)CN(C)C)C(C)C)C(N)=O [Compound 2] | 78.7% | 80.8% |
| CSCC[C@H](NC(=O)[C@H](CC(C)C)NC(=O)[C@H](Cc1cnc[nH]1)NC(=O)CNC(=O)[C@@H](NC(=O)[C@H](C)NC(=O)[C@H](Cc1c[nH]c2ccccc12)NC(=O)[C@H](CCC(N)=O)NC(=O)CCCCNC(=O)CNC(=O)[C@H](CS)NC(=O)[C@H](CO)NC(=O)CN)C(C)C)C(N)=O [Compound 3] | 82.4% | 86.7% |
| CSCC[C@H](NC(=O)[C@H](CC(C)C)NC(=O)[C@H](Cc1cnc[nH]1)NC(=O)CNC(=O)[C@@H](NC(=O)[C@H](C)NC(=O)[C@H](Cc1c[nH]c2ccccc12)NC(=O)[C@H](CCC(N)=O)NC(=O)CCCCNC(=O)CNC(=O)[C@H](CS)NC(=O)CNC(=O)CN)C(C)C)C(N)=O [Compound 4] | 83.3% | 83.3% |
